According to US7977481B2, “Pyrimidinyl-thiophene kinase modulators” (SGX Pharmaceuticals, Inc., priority 2005, dated 2011):

target: T1, JAK2 JH1JH2 V617F kinase (Homo sapiens, UniProt O60674, V617F); test: JAK2 Luminescence-Based ATP Depletion Enzyme Assay (JAK2-V617F); assay type: biochemical; conditions: 10 μM ATP
T1 construct: JAK2 JH1JH2 V617F kinase; inferred from Ni-NTA capture and imidazole elution; made in house; host or cells: Sf9 insect cells
Experimental: JAK2 Luminescence-Based ATP Depletion Enzyme Assay
Materials: JAK3tide peptide substrate=GGEEEEYFELVKKKK (Biopeptide, San Diego, Calif.), ATP (Sigma Cat#A-3377, FW=551), HEPES buffer, pH 7.6, 10% Brij 35 (Calbiochem Cat#203728), MgCl2, Staurosporine (Streptomyces sp. Sigma Cat#85660-1MG), white Corning (Costar) 384-well flat bottom plate (VWR Cat#29444-088), JAK2 KD (kinase domain) or JAK2 JH1JH2 V617F kinase (see below), Kinase-Glo™ (Promega Cat#V6712).
Stock Solutions: 5 mM JAK3tide peptide (9.86 mg/ml in 100 mM HEPES, pH 7.6), stored at −20° C.; 100 mM HEPES buffer, pH 7.6, 10% Brij 35; 10 mM ATP (5.51 mg/ml in 100 mM HEPES, pH 7.6) stored at −20° C. (diluted 50 μl into total of 10 ml 100 mM HEPES, pH 7.6, daily=50 μM ATP working stock); 100 mM MgCl2; 200 μM Staurosporine, 2× Kinase-Glo™ reagent (made fresh or stored at −20° C.).
Standard Assay Conditions for 384-well format (20 μl kinase reaction, 40 μl detection reaction): 10 mM MgCl2; 0.1 mM JAK3tide peptide (or, 0.5 mM JAK3tide peptide for JAK2 JH1JH2 V617F assay); 1 μl test compound (in 100% DMSO); 0.4 μg/ml JAK2 KD kinase or 12 μg/ml JAK2 JH1JH2 V617F kinase; 10 μM ATP; 100 mM HEPES+0.01% Brij, pH 7.6. Positive controls contained 5% DMSO with no test compound. Negative controls contained 10 μM staurosporine. The kinase reactions were initiated at time t=0 by the addition of ATP. Kinase reactions were incubated at 21-23° C. for 30 min, after which 20 μl of Kinase-Glo™ reagent were added to each well to quench the kinase reaction and initiate the luminescence reaction. After a 20 min incubation at 21-23° C., the luminescence was detected in a plate-reading luminometer (Tecan Ultra Evolution).
The pellet of Sf9 insect cells produced from a 6 L expression of Jak2 was resuspended in a buffer containing 50 mM Tris-HCl pH 8.5, 250 mM NaCl, 5% Glycerol, 0.2% β-octylglucoside, 5 mM β-mercaptoethanol (or with ligand added to the buffer eg. 5 mM ATP and 10 mM MgCl2; 0.05 mM compound of the invention) in a volume of approximately 40 mL per 1 L of original culture. One tablet of Roche Complete, EDTA-free protease inhibitor cocktail (Cat. #1873580) was added per 1 L of original culture. The suspension was then stirred for 1 hour at 4° C. Debris was removed by centrifugation for 30 minutes at 39,800 g at 4° C. The supernatant was decanted into a 500 mL beaker and 10 mL of 50% Qiagen Ni-NTA Agarose (Cat. #30250) pre-equilibrated in 50 mM Tris-HCl pH 8.5, 250 mM NaCl, 5% Glycerol, 0.2% β-octylglucoside, 5 mM β-mercaptoethanol was added and stirred for 30 minutes at 4° C. The sample was poured through a drip column at 4° C. and washed with 10 column volumes (CV) of 50 mM Tris-HCl pH 8.5, 250 mM NaCl, 5% Glycerol, 0.2% β-octylglucoside, 5 mM β-mercaptoethanol. The protein was eluted in 5 mL fractions using 5 CV of the same buffer containing 250-500 mM Imidazole. Fractions were pooled by SDS-PAGE analysis and the protein concentration determined by a Bradford assay. 5 mM TCEP was added to the pool and the protein sample was concentrated to ˜8 mL by centrifugation in an Amicon Ultra-15 10,000 Da MWCO centrifugal filter unit (Cat. #UFC901024). The concentrated protein was applied to a GE Healthcare HiLoad 16/60 Superdex 75 or 200 prep grade column (Cat. #17-1068-01, Cat. #17-1069-01) equilibrated in 20 mM Tris-HCl pH 8.5, 250 mM NaCl, and 1 mM DTT. Fractions were run on a SDS-PAGE gel and the cleanest fractions were pooled. The protein was concentrated to approximately 6.5-10 mg/mL. Samples in the final buffer (20 mM Tris-HCl pH 8.5, 250 mM NaCl, 1 mM DTT; [or with ligand added eg. 2 mM ATP/5 mM MgCl2 or 0.05 mM compound of the invention]) are delivered fresh to crystallization and stored at 4° C. or flash frozen in liquid nitrogen (as 120 μL aliquots) and stored at −80° C.

T1 sequence (O60674 536-1132 V617F limits assumed): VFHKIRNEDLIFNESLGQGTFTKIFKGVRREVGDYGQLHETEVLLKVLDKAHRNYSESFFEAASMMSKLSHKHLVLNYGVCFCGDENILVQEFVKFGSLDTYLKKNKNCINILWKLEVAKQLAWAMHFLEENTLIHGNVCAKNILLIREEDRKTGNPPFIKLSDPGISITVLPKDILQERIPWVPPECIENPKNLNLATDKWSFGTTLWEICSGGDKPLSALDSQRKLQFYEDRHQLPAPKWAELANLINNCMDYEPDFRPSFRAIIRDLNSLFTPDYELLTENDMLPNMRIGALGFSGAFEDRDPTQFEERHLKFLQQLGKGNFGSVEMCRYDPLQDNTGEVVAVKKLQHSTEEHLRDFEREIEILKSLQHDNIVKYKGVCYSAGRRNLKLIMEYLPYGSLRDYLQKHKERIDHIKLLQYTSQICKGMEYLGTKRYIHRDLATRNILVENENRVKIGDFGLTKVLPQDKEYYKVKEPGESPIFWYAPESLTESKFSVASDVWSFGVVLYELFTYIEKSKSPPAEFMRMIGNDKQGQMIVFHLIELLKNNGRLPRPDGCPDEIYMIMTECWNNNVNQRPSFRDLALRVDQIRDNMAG

| Compound | IC50 [nM] |
| --- | --- |
| CCN(CCC#N)C(=O)c1ccc(-c2ccnc(Nc3cccc(C(C)O)c3)n2)s1 (centres unmarked) | < 500 |
| C[C@@H](NC(=O)c1ccc(-c2ccnc(Nc3cccc(CN4CCC(O)CC4)c3)n2)s1)c1ccccc1 | < 500 |
| CN(C)C1CCN(c2cccc(Nc3nccc(-c4ccc(C(=O)NCc5ccco5)s4)n3)c2)C1 (centres unmarked) | < 500 |
| O=C(NCc1ccccc1)c1ccc(-c2ccnc(Nc3ccc(CCO)cc3)n2)s1 | < 500 |
| CCN(CCC#N)S(=O)(=O)c1ccc(-c2ccnc(Nc3cccc(C)c3)n2)s1 | < 500 |
| CC(O)c1cccc(Nc2nccc(-c3ccc(S(=O)(=O)N(C)C)s3)n2)c1 (centres unmarked) | < 500 |
| CCN(CCC#N)S(=O)(=O)c1ccc(-c2ccnc(Nc3cccc(C(C)O)c3)n2)s1 (centres unmarked) | < 500 |
| CC(O)c1cccc(Nc2nccc(-c3ccc(-c4cccc(CC#N)c4)s3)n2)c1 (centres unmarked) | < 500 |
